Patent US11319299B2, “Substituted carboxamides as inhibitors of WDR5 protein-protein binding” (PROPELLON THERAPEUTICS INC., priority 2016, dated 2022)

Each compound was assayed against WDR5 (Homo sapiens (Human), UniProt P61964) (assay: Surface Plasmon Resonance (SPR) assay, KD and residence time). Conditions: surface plasmon resonance (SPR) assay; read-out: WDR5 binding affinity (KD).
Type: binding
Experimental: (i) Surface Plasmon Resonance (SPR) Assay
The lifetime of a drug on its target is determined by two rate constants: the association rate constant (kon) and the dissociation rate constant (koff). In principle, the lifetime of the binary drug—target complex is thus extended by a rapid rate of drug binding and/or a slow rate of drug—target complex dissociation. The in vivo lifetime of a drug-target complex is most critically dependent on the value of the koff [Nat. Rev. Drug Discov. […] Drug Discov. […] Drug-target residence time is defined as the reciprocal of koff (τ=1/koff), making the residence time a parameter that is easily measured by routine in vitro assay methods.

Row | Kd [nM] | SMILES
1 | 2.24 | CCN(CC)c1ncc(-c2cc(NC(=O)c3c[nH]c(=O)cc3C(F)(F)F)c(N3C[C@@H](C)N(C)[C@@H](C)C3)cc2F)cn1 [Example 294, N-[5-[2-(diethylamino)pyrimidin-5-yl]-4-fluoro-2-[(3R,5S)-3,4,5-trimethylpiperazin-1-yl]phenyl]-6-oxo-4-(trifluoromethyl)-1H-pyridine-3-carboxamide]
2 | 10.7 | C[C@@H]1CN(c2cc(F)c(C3=CCN(C)CC3)cc2NC(=O)c2c[nH]c(=O)cc2C(F)(F)F)C[C@H](C)N1C [Example 267, N-[4-fluoro-5-(1-methyl-3,6-dihydro-2H-pyridin-4-yl)-2-[(3R,5S)-3,4,5-trimethylpiperazin-1-yl]phenyl]-6-oxo-4-(trifluoromethyl)-1H-pyridine-3-carboxamide]
3 | 8.49 | CCn1cc(C(=O)Nc2cc(-c3cnc(N4CCOCC4)nc3)c(F)cc2N2C[C@@H](C)N(C)[C@@H](C)C2)c(C(F)(F)F)cc1=O [Example 315, 1-ethyl-N-[4-fluoro-5-(2-morpholin-4-ylpyrimidin-5-yl)-2-[(3R,5S)-3,4,5-trimethylpiperazin-1-yl]phenyl]-6-oxo-4-(trifluoromethyl)pyridine-3-carboxamide]
4 | 6.87 | C[C@@H]1CN(c2cc(F)c(-c3cnc(N4CCOCC4)nc3)cc2NC(=O)c2cn(C)c(=O)cc2C(F)F)C[C@H](C)N1C [Example 342, 4-(difluoromethyl)-N-[4-fluoro-5-(2-morpholin-4-ylpyrimidin-5-yl)-2-[(3R,5S)-3,4,5-trimethylpiperazin-1-yl]phenyl]-1-methyl-6-oxopyridine-3-carboxamide]
5 | 0.463 | COc1ncc(-c2cc(NC(=O)c3c[nH]c(=O)cc3C(F)(F)F)c(N3C[C@@H](C)N(C)[C@@H](C)C3)cc2F)cc1C(F)(F)F [Example 136, N-[4-fluoro-5-[6-methoxy-5-(trifluoromethyl)pyridin-3-yl]-2-[(3R,5S)-3,4,5-trimethylpiperazin-1-yl]phenyl]-6-oxo-4-(trifluoromethyl)-1H-pyridine-3-carboxamide]
6 | 22.9 | C[C@@H]1CN(c2cc(F)c(-c3cnc(N4CCOCC4)nc3)cc2NC(=O)c2c(F)cccc2C(F)(F)F)C[C@H](C)N1C [Example 297, 2-fluoro-N-[4-fluoro-5-(2-morpholin-4-ylpyrimidin-5-yl)-2-[(3R,5S)-3,4,5-trimethylpiperazin-1-yl]phenyl]-6-(trifluoromethyl)benzamide]
7 | 1730 | COc1cccc(C(=O)Nc2cc(-c3cnc(N4CCOCC4)nc3)c(F)cc2N2C[C@@H](C)N(C)[C@@H](C)C2)c1F [Example 110, 2-fluoro-N-[4-fluoro-5-(2-morpholin-4-ylpyrimidin-5-yl)-2-[(3R,5S)-3,4,5-trimethylpiperazin-1-yl]phenyl]-3-methoxybenzamide]
8 | 1.61 | CC1CN(c2cc(F)c(-c3cnc(N4CC(C)(C)OC(C)(C)C4)nc3)cc2NC(=O)c2c[nH]c(=O)cc2C(F)(F)F)CCN1C (stereo in doubt) [Example 319, N-[4-fluoro-2-[(3R)-3,4-dimethylpiperazin-1-yl]-5-[2-(2,2,6,6-tetramethylmorpholin-4-yl)pyrimidin-5-yl]phenyl]-6-oxo-4-(trifluoromethyl)-1H-pyridine-3-carboxamide]
9 | 2.16 | C[C@@H]1CN(c2cc(F)c(C3=CCN(C(=O)C(C)(C)C)CC3)cc2NC(=O)c2c[nH]c(=O)cc2C(F)(F)F)C[C@H](C)N1C [Example 243, N-[5-[1-(2,2-dimethylpropanoyl)-3,6-dihydro-2H-pyridin-4-yl]-4-fluoro-2-[(3R,5S)-3,4,5-trimethylpiperazin-1-yl]phenyl]-6-oxo-4-(trifluoromethyl)-1H-pyridine-3-carboxamide]

Same assay, conditions: surface plasmon resonance (SPR); read-out: WDR5 binding affinity (KD)

Row | Kd [nM] | SMILES
10 | 10.6 | C[C@@H]1CN(c2cc(F)c(-c3csc(CN4CCOCC4)n3)cc2NC(=O)c2cn(C)c(=O)cc2C(F)F)C[C@H](C)N1C [Example 749, 4-(difluoromethyl)-N-[4-fluoro-5-[2-(morpholin-4-ylmethyl)-1,3-thiazol-4-yl]-2-[(3R,5S)-3,4,5-trimethylpiperazin-1-yl]phenyl]-1-methyl-6-oxopyridine-3-carboxamide]
11 | 0.457 | C[C@@H]1CN(c2cc(F)c(C3=CCN(c4ncc(CN5CCOCC5)cn4)CC3)cc2NC(=O)c2c[nH]c(=O)cc2C(F)(F)F)C[C@H](C)N1C [Example 406, N-[4-fluoro-5-[1-[5-(morpholin-4-ylmethyl)pyrimidin-2-yl]-3,6-dihydro-2H-pyridin-4-yl]-2-[(3R,5S)-3,4,5-trimethylpiperazin-1-yl]phenyl]-6-oxo-4-(trifluoromethyl)-1H-pyridine-3-carboxamide]
12 | 1.74 | C[C@@H]1CN(c2ncc(-c3cc(NC(=O)c4cn(C)c(=O)cc4C(F)(F)F)c(N4C[C@@H](C)N(C)[C@@H](C)C4)cc3F)cn2)CCO1 [Example 640, N-[4-fluoro-5-[2-[(2R)-2-methylmorpholin-4-yl]pyrimidin-5-yl]-2-[(3R,5S)-3,4,5-trimethylpiperazin-1-yl]phenyl]-1-methyl-6-oxo-4-(trifluoromethyl)pyridine-3-carboxamide]
13 | 5.29 | C[C@@H]1CN(c2cc(F)c(-c3cccc4scnc34)cc2NC(=O)c2c[nH]c(=O)cc2C(F)(F)F)C[C@H](C)N1C [Example 677, N-[5-(1,3-benzothiazol-4-yl)-4-fluoro-2-[(3R,5S)-3,4,5-trimethylpiperazin-1-yl]phenyl]-6-oxo-4-(trifluoromethyl)-1H-pyridine-3-carboxamide]
14 | 2.5 | C[C@@H]1CN(c2cc(F)c(-c3ccc(F)c(C(N)=O)c3)cc2NC(=O)c2c[nH]c(=O)cc2C(F)(F)F)C[C@H](C)N1C [Example 550, N-[5-(3-carbamoyl-4-fluorophenyl)-4-fluoro-2-[(3R,5S)-3,4,5-trimethylpiperazin-1-yl]phenyl]-6-oxo-4-(trifluoromethyl)-1H-pyridine-3-carboxamide]
15 | 117 | CC1CN(c2cc(F)c(-c3ccc(C(=O)NC(C)(C)CC(C)(C)C)c(F)c3F)cc2NC(=O)c2ccc(F)cc2C(F)(F)F)CCN1C (stereo in doubt) [Example 666, 2,3-difluoro-4-[2-fluoro-5-[[4-fluoro-2-(trifluoromethyl)benzoyl]amino]-4-[(3R)-3,4-dimethylpiperazin-1-yl]phenyl]-N-(2,4,4-trimethylpentan-2-yl)benzamide]
16 | 5.18 | CC1CN(c2cc(F)c(C3=CCCN(c4ncc(C=O)cn4)C3)cc2NC(=O)c2ccc(F)cc2C(F)(F)F)CCN1C (stereo in doubt) [Example 650, 4-fluoro-N-[4-fluoro-5-[1-(5-formylpyrimidin-2-yl)-3,6-dihydro-2H-pyridin-5-yl]-2-[(3R)-3,4-dimethylpiperazin-1-yl]phenyl]-2-(trifluoromethyl)benzamide]
17 | 1.13 | CC1CN(c2cc(F)c(-c3cnc(N4CCOCC4)s3)cc2NC(=O)c2c[nH]c(=O)cc2C(F)(F)F)CCN1C (stereo in doubt) [Example 618, N-[4-fluoro-5-(2-morpholin-4-yl-1,3-thiazol-5-yl)-2-[(3R)-3,4-dimethylpiperazin-1-yl]phenyl]-6-oxo-4-(trifluoromethyl)-1H-pyridine-3-carboxamide]
18 | 3.01 | C[C@@H]1CN(c2cc(F)c(-c3csc(CN4CCOCC4)c3)cc2NC(=O)c2c[nH]c(=O)cc2C(F)(F)F)C[C@H](C)N1C [Example 494, N-[4-fluoro-5-[5-(morpholin-4-ylmethyl)thiophen-3-yl]-2-[(3R,5S)-3,4,5-trimethylpiperazin-1-yl]phenyl]-6-oxo-4-(trifluoromethyl)-1H-pyridine-3-carboxamide]
19 | 2.82 | CC(C)OC(=O)N1CC=C(c2cc(NC(=O)c3c[nH]c(=O)cc3C(F)F)c(N3CCN(C)C(C)C3)cc2F)CC1 (stereo in doubt) [Example 724, propan-2-yl 4-[5-[[4-(difluoromethyl)-6-oxo-1H-pyridine-3-carbonyl]amino]-2-fluoro-4-[(3R)-3,4-dimethylpiperazin-1-yl]phenyl]-3,6-dihydro-2H-pyridine-1-carboxylate]
20 | 1.99 | COc1cc(N2CC=C(c3cc(NC(=O)c4c[nH]c(=O)cc4C(F)(F)F)c(N4C[C@@H](C)N(C)[C@@H](C)C4)cc3F)C2)ncn1 [Example 438, N-[4-fluoro-5-[1-(6-methoxypyrimidin-4-yl)-2,5-dihydropyrrol-3-yl]-2-[(3R,5S)-3,4,5-trimethylpiperazin-1-yl]phenyl]-6-oxo-4-(trifluoromethyl)-1H-pyridine-3-carboxamide]
21 | 51.8 | C[C@@H]1CN(c2cc(F)c(-c3ncc(CN4CCOCC4)s3)cc2NC(=O)c2cn(C)c(=O)cc2C(F)F)C[C@H](C)N1C [Example 748, 4-(difluoromethyl)-N-[4-fluoro-5-[5-(morpholin-4-ylmethyl)-1,3-thiazol-2-yl]-2-[(3R,5S)-3,4,5-trimethylpiperazin-1-yl]phenyl]-1-methyl-6-oxopyridine-3-carboxamide]
22 | 0.733 | CC1CN(c2cc(F)c(-c3ccnc(N4CCOCC4)n3)cc2NC(=O)c2ccc(F)cc2C(F)(F)F)CCN1C (stereo in doubt) [Example 614, 4-fluoro-N-[4-fluoro-5-(2-morpholin-4-ylpyrimidin-4-yl)-2-[(3R)-3,4-dimethylpiperazin-1-yl]phenyl]-2-(trifluoromethyl)benzamide]
23 | 3.78 | CC1CN(c2cc(F)c(-c3cnc(N4CCOC(C)(C)C4)nc3)cc2NC(=O)c2ccc(F)cc2C(F)(F)F)CCN1C (stereo in doubt) [Example 558, N-[5-[2-(2,2-dimethylmorpholin-4-yl)pyrimidin-5-yl]-4-fluoro-2-[(3R)-3,4-dimethylpiperazin-1-yl]phenyl]-4-fluoro-2-(trifluoromethyl)benzamide]
